Assay results as given in the OligoGym collection.
Bases are written 5' to 3'; sugars and linkages follow in the same order, as letters with counts (s phosphorothioate, o phosphodiester; PS: all linkages phosphorothioate). The collection does not say whether C is 5-methylated. l = locked nucleic acid (LNA); d = 2'-deoxy (DNA)

biological target: Tau; test: rat primary cortical neurons, FLIPR, 25 uM ASO

Question: Which calcium oscillation score does the source give for “TCCCAGCGTGATCTTCCATC (sugars ldlllddddddddddlldll, PS)” here?
Answer: Its calcium oscillation score is 74.5 % of control.

Question: “TTAAGTGATTAACCAATTAA (sugars l3 d14 l3, PS)” was tested. Which calcium oscillation score did it give?
Answer: Its calcium oscillation score is 40.1 % of control.

Question: With “CTAATTACATTTTTTCTTTT (sugars l4 d12 l4, PS)” as the sequence, how does the calcium oscillation score read?
Answer: The calcium oscillation score was 60.1 % of control.

Question: With CTACAAACCAGTTACC (sugars l3 d9 l4, PS) as the sequence, how does the calcium oscillation score read?
Answer: The calcium oscillation score was 107 % of control.

Question: With “TAATAGATCTTTCCCCT (sugars l2 d12 l3, PS)” as the sequence, how does the calcium oscillation score read?
Answer: The calcium oscillation score was 103 % of control.

Question: For GCCCTAAAGTCCCAG (sugars l3 d9 l3, PS), which calcium oscillation score is on record?
Answer: Its calcium oscillation score is 34.3 % of control.

Question: How did the calcium oscillation score turn out when AGTGGAGCCGATCTTG (sugars l3 d10 l3, PS) was run?
Answer: The calcium oscillation score was 0 % of control.

Question: For GTAACCAACTTTCATC (sugars l3 d9 l4, PS), which calcium oscillation score is on record?
Answer: The calcium oscillation score was 74.8 % of control.

Question: With “ATTTTACTACTCTCTTTT (sugars l4 d10 l4, PS)” as the sequence, how does the calcium oscillation score read?
Answer: The calcium oscillation score was 75 % of control.

Question: For “TGTCCAAACTTTTACTC (sugars l4 d10 l3, PS)”, which calcium oscillation score is on record?
Answer: Its calcium oscillation score is 65.3 % of control.

Question: With CCCTAAACCATGATCT (sugars l3 d10 l3, PS) as the sequence, how does the calcium oscillation score read?
Answer: The calcium oscillation score was 89.7 % of control.

Question: “ACTCTTTGAACACCCCAT (sugars l4 d12 l2, PS)” was tested. Which calcium oscillation score did it give?
Answer: The calcium oscillation score was 38.3 % of control.

Question: For “ATTAACATATTTTTACCTA (sugars l4 d11 l4, PS)”, which calcium oscillation score is on record?
Answer: Its calcium oscillation score is 65.3 % of control.

Question: With “AATCCCAGTTTCCCCCA (sugars l4 d11 l2, PS)” as the sequence, how does the calcium oscillation score read?
Answer: Its calcium oscillation score is 65.6 % of control.

Question: For GTCAACTGGTTTGT (sugars l3 d8 l3, PS), which calcium oscillation score is on record?
Answer: Its calcium oscillation score is 89.4 % of control.

Question: AAACAGGATACAGT (sugars l3 d8 l3, PS) was tested. Which calcium oscillation score did it give?
Answer: Its calcium oscillation score is 109 % of control.

Question: For “TATTTCCAAATTCACTTTTA (sugars l4 d11 l5, PS)”, which calcium oscillation score is on record?
Answer: Its calcium oscillation score is 172 % of control.

Question: How did the calcium oscillation score turn out when “AAATCCCTCTACTCCAG (sugars l2 d12 l3, PS)” was run?
Answer: Its calcium oscillation score is 51.4 % of control.

Question: For “CAATCCTAAACAATGCC (sugars l2 d11 l4, PS)”, which calcium oscillation score is on record?
Answer: The calcium oscillation score was 41.8 % of control.

Question: How did the calcium oscillation score turn out when “AAAATACTCCTCCCTTA (sugars l3 d10 l4, PS)” was run?
Answer: Its calcium oscillation score is 67.1 % of control.

Question: Which calcium oscillation score does the source give for TTGTGATGCAGGAG (sugars l3 d8 l3, PS) here?
Answer: The calcium oscillation score was 0 % of control.

Question: For TTTGGCGTTCTCGC (sugars l3 d8 l3, PS), which calcium oscillation score is on record?
Answer: Its calcium oscillation score is 28.7 % of control.

Question: With AAGATGAAATTTGCTC (sugars l3 d10 l3, PS) as the sequence, how does the calcium oscillation score read?
Answer: Its calcium oscillation score is ≥ 200 % of control.

Question: For “TAATTCATTTAATTCTCTTC (sugars l4 d12 l4, PS)”, which calcium oscillation score is on record?
Answer: The calcium oscillation score was 60.1 % of control.

Question: Which calcium oscillation score does the source give for TCACACACATGATTATC (sugars l4 d9 l4, PS) here?
Answer: The calcium oscillation score was 78.5 % of control.

Question: “CACCACAGTCTTTTAAT (sugars l4 d10 l3, PS)” was tested. Which calcium oscillation score did it give?
Answer: The calcium oscillation score was 73.7 % of control.

Question: How did the calcium oscillation score turn out when “TAACTCTCCTTATCTGA (sugars l2 d11 l4, PS)” was run?
Answer: Its calcium oscillation score is 29.7 % of control.

Question: “TTGAAGTCCCGAGCCAAAGC (sugars l3 d14 l3, PS)” was tested. Which calcium oscillation score did it give?
Answer: Its calcium oscillation score is 0 % of control.

Question: For “TCCCTTAACAATATGCT (sugars l2 d11 l4, PS)”, which calcium oscillation score is on record?
Answer: The calcium oscillation score was 75.1 % of control.

Question: For “TCTCTTAACTTTATTTTATT (sugars l4 d12 l4, PS)”, which calcium oscillation score is on record?
Answer: Its calcium oscillation score is 84.9 % of control.

Question: How did the calcium oscillation score turn out when “ACCTCTTAGTCATCTTCCC (sugars l2 d15 l2, PS)” was run?
Answer: The calcium oscillation score was 67.9 % of control.

Question: For TCCTTCTAAGTACAAT (sugars l4 d8 l4, PS), which calcium oscillation score is on record?
Answer: Its calcium oscillation score is 54.1 % of control.

Question: “AACCATTAACTGCCTAT (sugars l4 d10 l3, PS)” was tested. Which calcium oscillation score did it give?
Answer: The calcium oscillation score was 53 % of control.

Question: CCCGTGGTCTGTCT (sugars l3 d8 l3, PS) was tested. Which calcium oscillation score did it give?
Answer: Its calcium oscillation score is 89.8 % of control.

Question: For “TATTAATTATCTGCACC (sugars l3 d10 l4, PS)”, which calcium oscillation score is on record?
Answer: Its calcium oscillation score is 50.9 % of control.

Question: How did the calcium oscillation score turn out when CCCAGAATTCTAACTA (sugars l4 d10 l2, PS) was run?
Answer: Its calcium oscillation score is 63.5 % of control.

Question: Which calcium oscillation score does the source give for “TCCAGCCATATTTCAACTCT (sugars l3 d14 l3, PS)” here?
Answer: The calcium oscillation score was 45.2 % of control.

Question: CAGCTTCGTCTTCCAG (sugars l3 d10 l3, PS) was tested. Which calcium oscillation score did it give?
Answer: The calcium oscillation score was 75.9 % of control.

Question: How did the calcium oscillation score turn out when “ACTTTATTTCCAAATTCACTTTTAC (sugars l1 d1 l2 d18 l3, PS)” was run?
Answer: Its calcium oscillation score is 23.6 % of control.

Question: How did the calcium oscillation score turn out when TTGATAAAACATCCCT (sugars l4 d8 l4, PS) was run?
Answer: The calcium oscillation score was 65 % of control.

Question: With “TTTCCCCATTTATCCTTC (sugars l2 d14 l2, PS)” as the sequence, how does the calcium oscillation score read?
Answer: Its calcium oscillation score is 49.4 % of control.

Question: “GGTTAGCCCTAAAGTCCCAG (sugars l3 d14 l3, PS)” was tested. Which calcium oscillation score did it give?
Answer: Its calcium oscillation score is 37.3 % of control.

Question: Which calcium oscillation score does the source give for ACCTCCTGGTTTATGA (sugars l3 d10 l3, PS) here?
Answer: The calcium oscillation score was 32.2 % of control.

Question: With “TTATTTCCAAATTCACTTTT (sugars lllldddddddddlddldll, PS)” as the sequence, how does the calcium oscillation score read?
Answer: Its calcium oscillation score is 96.5 % of control.

Question: How did the calcium oscillation score turn out when “TTTTTATTCATAACTTTTCA (sugars l4 d12 l4, PS)” was run?
Answer: The calcium oscillation score was 56.4 % of control.

Question: For “ACTTTATCCCTCCATGAT (sugars l3 d11 l4, PS)”, which calcium oscillation score is on record?
Answer: Its calcium oscillation score is 47.4 % of control.

Question: For ATCATATCCTAAGCAT (sugars l3 d9 l4, PS), which calcium oscillation score is on record?
Answer: The calcium oscillation score was 60.1 % of control.

Question: “AACAAACAAAAATCCCCTA (sugars l4 d11 l4, PS)” was tested. Which calcium oscillation score did it give?
Answer: The calcium oscillation score was 85.7 % of control.

Question: How did the calcium oscillation score turn out when “CTACAAACCAGTTACCA (sugars l3 d11 l3, PS)” was run?
Answer: Its calcium oscillation score is 69.9 % of control.

Question: Which calcium oscillation score does the source give for AGTCTTTATTAACACTC (sugars l4 d9 l4, PS) here?
Answer: Its calcium oscillation score is 60.8 % of control.

Question: How did the calcium oscillation score turn out when TGTTTGATATTATCCT (sugars l3 d10 l3, PS) was run?
Answer: The calcium oscillation score was 104 % of control.

Question: How did the calcium oscillation score turn out when TGGCGTTCTCGCGG (sugars l3 d8 l3, PS) was run?
Answer: The calcium oscillation score was 93.9 % of control.

Question: Which calcium oscillation score does the source give for “CCACCTCCTGGTTTATGATG (sugars l3 d14 l3, PS)” here?
Answer: Its calcium oscillation score is 19.4 % of control.

Question: For CTTACTGATCATAATCC (sugars l4 d9 l4, PS), which calcium oscillation score is on record?
Answer: Its calcium oscillation score is 85.1 % of control.

Question: For “GCCACCTCCTGGTTTATGAT (sugars l3 d14 l3, PS)”, which calcium oscillation score is on record?
Answer: Its calcium oscillation score is 31.6 % of control.
